Assay results from patent publication US20230027066A1 (Urovant Sciences GmbH, priority 2019, published 2023).

Columns and labels:
Type in all cases: in vivo, human
[1] = tested on: men and women with overactive bladder; assay: extension study, OAB-q LF coping subscore at Week 52; conditions: for OAB-q LF Coping Subscore, Week 52 Mean: Full Analysis Set Extension; for OAB-q LF Coping Subscore, Change from Baseline Mean at Week 52: baseline from parent study
[2] = Phase 3 study (75 mg), heart rate and blood pressure changes
Excerpt: (§1) Study assessments of safety included adverse events, physical examinations, vital signs (and weight), and clinical laboratory tests
Categorical changes are based on 3 consecutive post-baseline visits and patients are counted in all applicable categories (e.g., if a patient has a 12 unit increase then that patient is counted in both ≥5 and ≥10 unit columns).
Blood Pressure assessments are taken in triplicate and averaged at each visit.

[3] = tested on: men and women with overactive bladder; assay: 40-week extension study (52 weeks), efficacy; conditions: for UUI Episodes 75% Responders at Week 52 / UUI Episodes 100% Responders at Week 52 / Urgency Episodes 50% Responders at Week 52: multiple imputation
Excerpt: All CFB calculations used the parent study Baseline value.

[4] = Phase 3 study (75 mg), adverse events
Protocol: as §1
An adverse event is any untoward medical occurrence in a patient or clinical investigation patient, temporally associated with the use of a medicinal product, whether or not considered related to the medicinal product.
Adverse Events of Clinical Interest for this study included:
Safety analyses were conducted using the SAF and summarized by treatment group as treated. The treatment-emergent period is defined as the period of time from the first dose date of the double blinded Study Treatment through 28 days after the last dose of Study Treatment, or the date of initiation of another investigational agent or surgical intervention or rollover to the extension study, whichever occurs first. Safety was assessed through summaries of adverse events, the frequency of treatment discontinuations due to adverse events, and clinical laboratory evaluations.

[5] = 3 consecutive post-baseline visits
[6] = 40-Week treatment group, Full Analysis Set Extension
[7] = 52-Week treatment group, Full Analysis Set Extension

## O=C(Nc1ccc(C[C@@H]2CC[C@H]([C@H](O)c3ccccc3)N2)cc1)[C@@H]1CCc2nccc(=O)n21 [Vibegron, (6S)-N-[4-[[(2S,5R)−5-[(R)-hydroxy(phenyl)methyl]pyrrolidin−2-yl]methyl]phenyl]−4-oxo−7,8-dihydro−6H-pyrrolo[1,2-a]pyrimidine−6-carboxamide]
[1]; 40-Week treatment group
  OAB-q LF Coping Subscore, Week 52 Mean: 86.3
  OAB-q LF Coping Subscore, Change from Baseline Mean at Week 52: 28.3
[1]; 52-Week treatment group
  OAB-q LF Coping Subscore, Week 52 Mean: 83.6
  OAB-q LF Coping Subscore, Change from Baseline Mean at Week 52: 27.1
[2]; [5]
  Diastolic BP categorical change from baseline ≥5 mm Hg, patients: 7.0%
  Diastolic BP categorical change from baseline ≥10 mm Hg, patients: 1.3%
  Diastolic BP categorical change from baseline ≥15 mm Hg, patients: 0.2%
  Heart Rate categorical change from baseline ≥5 bpm, patients: 8.6%
  Heart Rate categorical change from baseline ≥10 bpm, patients: 1.8%
  Heart Rate categorical change from baseline ≥15 bpm, patients: 0.4%
  Systolic BP categorical change from baseline ≥5 mm Hg, patients: 11.2%
  Systolic BP categorical change from baseline ≥10 mm Hg, patients: 4.2%
  Systolic BP categorical change from baseline ≥15 mm Hg, patients: 1.3%
[2]; Hypertensive at baseline
  Diastolic BP, 12-week change (95% CI): −3.2 (−6.3, −0.1) mm Hg
  Heart Rate, 12-week change: +2.2 beats/minute
  Systolic BP, 12-week change (95% CI): −9.1 (−13.8, −4.4) mm Hg
[2]; Normotensive at baseline
  Diastolic BP, 12-week change (95% CI): +0.5 (−0.2, +1.1) mm Hg
  Heart Rate, 12-week change: +0.4 beats/minute
  Systolic BP, 12-week change (95% CI): +1.0(0, +2.0) mm Hg
[2]; Week 12, all patients
  Diastolic BP, Mean Change from Baseline at Week 12 (SD): 0.2 (7.43) mm Hg
  Heart Rate, Mean Change from Baseline at Week 12: 0.5 beats/minute
  Systolic BP, Mean Change from Baseline at Week 12: 0.2 mm Hg
[3]; 40-Week arm
  Micturitions, Change from Baseline at Week 52, Mean: −3.1
  UUI Episodes, Change from Baseline at Week 52, Mean: −2.3
  UUI Episodes, Week 52 Mean: 1.2
  Urgency Episodes, Change from Baseline at Week 52, Mean: −4.0
  Urgency Episodes, Week 52 Mean: 4.7
[3]; 40-Week arm, Full Analysis Set Extension
  Micturitions, Week 52 Mean: 9.3
[3]; [6]
  Total urinary incontinence episodes, Change from Baseline Mean at Week 52: −2.5
  Total urinary incontinence episodes, Week 52 Mean: 1.8
[3]; 40-Week treatment group
  UUI Episodes 75% Responders at Week 52: 58.7%
  UUI Episodes 100% Responders at Week 52: 42.1%
  Urgency Episodes 50% Responders at Week 52: 51.4%
[3]; 52-Week arm
  Micturitions, Change from Baseline at Week 52, Mean: −2.5
  UUI Episodes, Change from Baseline at Week 52, Mean: −2.2
  UUI Episodes, Week 52 Mean: 1.0
  Urgency Episodes, Change from Baseline at Week 52, Mean: −3.4
  Urgency Episodes, Week 52 Mean: 4.5
[3]; 52-Week arm, Full Analysis Set Extension
  Micturitions, Week 52 Mean: 8.7
[3]; [7]
  Total urinary incontinence episodes, Change from Baseline Mean at Week 52: −2.5
  Total urinary incontinence episodes, Week 52 Mean: 1.2
[3]; 52-Week treatment group
  UUI Episodes 75% Responders at Week 52: 61.0%
  UUI Episodes 100% Responders at Week 52: 40.8%
  Urgency Episodes 50% Responders at Week 52: 49.4%
[3]; 52-Weeks arm, Full Analysis Set Extension for Incontinence
  UUI Episodes, Change from Baseline LS Mean (SE) at Week 52: −2.2 (0.15)
[3]; 52-Weeks arm, mixed model for repeated measures
  Micturitions, Change from Baseline LS Mean (SE) at Week 52: −2.4 (0.24)
[3]; 52-Weeks treatment, Full Analysis Set Extension
  Urgency episodes, Change from Baseline LS Mean (SE) at Week 52: −3.4 (0.34)
[3]; 52-Weeks treatment, Full Analysis Set Extension for Incontinence
  Total urinary incontinence episodes, Change from Baseline LS Mean (SE) at Week 52: −2.5 (0.17)
[3]; 52-week treatment, Table 97
  % Responders, 50% Reduction in Total Inc at Week 52: 71%
  % Responders, 50% Reduction in UE at Week 52: 49%
  % Responders, 75% Reduction in UUI at Week 52: 61%
  % Responders, 100% Reduction in UUI at Week 52: 41%
  Micturitions, Least Squares Means CFB at Week 52: −2.4
  Total Incontinence Episodes, Least Squares Means CFB at Week 52: −2.5
  UUI Episodes, Least Squares Means CFB at Week 52: −2.2
  Urgency Episodes (UE), Least Squares Means CFB at Week 52: −3.4
  Volume Voided, mean change from baseline at Week 52: 26 mL
[4]; 12-week study
  AE: ALT increase: 1 (0.2) n (%)
  AE: AST increase: 1 (0.2) n (%)
  AE: Atrial fibrillation: 1 (0.2) n (%)
  AE: Bilirubin increased: 0 n (%)
  AE: Blood creatinine increased: 1 (0.2) n (%)
  AE: Blood pressure diastolic increased: 0 n (%)
  AE: Blood pressure increased: 4 (0.7) n (%)
  AE: Cardiac failure congestive: 1 (0.2%) n (%)
  AE: Cerebrovascular accident: 1 (0.2) n (%)
  AE: Chest discomfort: 4 (0.7) n (%)
  AE: Chest pain: 0 n (%)
  AE: Chronic kidney disease: 1 (0.2) n (%)
  AE: Constipation: 9 (1.7) n (%)
  AE: Cystitis: 1 (0.2) n (%)
  AE: Diarrhea: 12 (2.2) n (%)
  AE: Dizziness: 5 (0.9) n (%)
  AE: Drug hypersensitivity: 2 (0.4) n (%)
  AE: Dry mouth: 9 (1.7) n (%)
  AE: Dysuria: 0 n (%)
  AE: Escherichia urinary-tract infection: 0 n (%)
  AE: Fatigue: 2 (0.4) n (%)
  AE: Glomerular filtration rate decreased: 1 (0.2) n (%)
  AE: Headache: 22 (4.0) n (%)
  AE: Hepatic enzyme increased: 0 n (%)
  AE: Hot flush: 4 (0.7) n (%)
  AE: Hyperglycemia: 3 (0.6) n (%)
  AE: Hypertension: 9 (1.7) n (%)
  AE: Hypotension: 1 (0.2) n (%)
  AE: Nasopharyngitis: 15 (2.8) n (%)
  AE: Nausea: 12 (2.2) n (%)
  AE: Pollakiuria: 0 n (%)
  AE: Positional vertigo: 0 n (%)
  AE: Residual urine volume increased: 4 (0.7) n (%)
  AE: Somnolence: 2 (0.4) n (%)
  AE: Syncope: 0 n (%)
  AE: Tachycardia: 0 n (%)
  AE: Transaminases increased: 1 (0.2) n (%)
  AE: Type 2 diabetes mellitus: 2 (0.4) n (%)
  AE: Urinary retention: 3 (0.6) n (%)
  AE: Urinary tract infection: 27 (5.0) n (%)
  AE: Vertigo: 1 (0.2) n (%)
[4]; patients ≥75 years
  AE: Back pain: 2.7%
  AE: Diarrhea: 4.0%
  AE: Dyspnea: 4.0%
  AE: Nausea: 2.7%
  AE: Rash: 2.7%
  AE: Somnolence: 2.7%
  AE: Upper respiratory tract infection: 4.0%
  AE: Urinary retention: 2.7%
  AE: Urinary tract infection: 8.0%
  Overall AE rate: 49.3%
[4]; safety population
  Any AE of clinical interest, %: (6.6%)
  Patients with at least one treatment emergent serious AEs, %: (1.5) %
  SAEs considered treatment-related by the investigator, %: (0.4) %
  SAEs: Hospitalization, %: (1.3) %
  SAEs: other serious criteria, %: (0.4) %
[4]; safety population, 12-week study
  Patients with at least one treatment emergent adverse events, %: (38.7) %
[4]; vibegron 75 mg or tolterodine ER 4 mg once daily, 12 weeks
  Patients with at least one Serious AE: 1.5%
